These results are taken from patent US20110245288A1 (priority 2010, published 2011).

The conditions of data set [1]: human.
The conditions of data set [2]: human. This is another data set of the same source.

As for `CO[C@]12CC[C@@]3(C[C@@H]1[C@](C)(O)C(C)(C)C)[C@H]1Cc4ccc(O)c5c4[C@@]3(CCN1CC1CC1)[C@H]2O5` [BUP, buprenorphine, reference compound], in data set [1], the Cumulative permeation amounted to 6.32 ± 2.16 nmol, the Flux is listed as 0.44 ± 0.14 nmol/cm^2/h, the Lag time was determined as 9.2 ± 2.0 h and the “Skin Disposition” value came out at 0.62 ± 0.34 µmol/g.

As for `CCOCCOCCOC(=O)Oc1ccc2c3c1O[C@H]1[C@@]4(OC)CC[C@@]5(C[C@@H]4[C@](C)(O)C(C)(C)C)[C@@H](C2)N(CC2CC2)CC[C@]315` [Formula I, Buprenorphine 3,6-dioxaoctyl carbonate], in data set [1], the Cumulative permeation worked out at 17.5 ± 4.0 nmol, the Flux was 1.24 ± 0.23 nmol/cm^2/h, the Lag time is recorded as 7.7 ± 1.7 h and the “Skin Disposition” value came to 1.0 ± 0.4 µmol/g. Moreover, in data set [1], the flux enhancement entry was “*Formula I (3) (key: *Indicates a flux enhancement greater than 2.)” and the “fold increase in cumulative permeation as compared to BUP” value was at least 2.75 fold. Also, in data set [2], the “Plasma hydrolysis (k)” value is -0.113 h⁻¹.

In the case of `CCOCCOCCOCCOCCOC(=O)Oc1ccc2c3c1O[C@H]1[C@@]4(OC)CC[C@@]5(C[C@@H]4[C@](C)(O)C(C)(C)C)[C@@H](C2)N(CC2CC2)CC[C@]315` [Formula II, Buprenorphine 3,6,9,12-tetraoxatetradecanyl carbonate], in data set [1], the Cumulative permeation is reported as 4.5 ± 1.9 nmol, the Flux came out at 0.31 ± 0.26 nmol/cm^2/h, the Lag time came to 7.4 ± 4.7 h and the “Skin Disposition” value was found to be 4.5 ± 1.9 µmol/g. Also, the “Plasma hydrolysis (k)” value in data set [2] was -1.12 h⁻¹.

Turning to `CCOCCOCCOCCOC(=O)Oc1ccc2c3c1O[C@H]1[C@@]4(OC)CC[C@@]5(C[C@@H]4[C@](C)(O)C(C)(C)C)[C@@H](C2)N(CC2CC2)CC[C@]315` [Formula III, Buprenorphine 3,6,9-trioxaundecyl carbonate], in data set [1], the Cumulative permeation is listed as 23.9 ± 6.7 nmol, the Flux came out at 1.74 ± 0.45 nmol/cm^2/h, the Lag time is 8.7 ± 0.6 h and the “Skin Disposition” value amounted to 13.89 ± 12.21 µmol/g. Also, in data set [1], the flux enhancement entry is listed as “*FormuIa III (4) (key: *Indicates a flux enhancement greater than 2.)” and the “fold increase in cumulative permeation as compared to BUP” value is recorded as at least 2.75 fold. Also, the “Plasma hydrolysis (k)” value in data set [2] is -0.37 h⁻¹.
